ChEMBL document CHEMBL2407034, “Discovery of AZD8931, an Equipotent, Reversible Inhibitor of Signaling by EGFR, HER2, and HER3 Receptors” (ACS Med Chem Lett, 2013)
Values after ≈ are worked out from the molar mass of the structure shown.

What was measured:
[1] = AUC in mouse at 50 mg/kg, po; assay type: ADME, organism-based; design: dose 50 mg/kg, route oral; settings: plasma
KB = test: Antiproliferative activity against human KB cells; assay type: functional, cell-based
[2] = Lipophilicity, log D of the compound at pH 7.4; assay type: physicochemical; settings: buffer
LoVo = test: Antitumor activity against human LoVo cells xenografted in mouse assessed as tumor growth inhibition at 100 mg/kg, po qd; assay type: functional; settings: read-out: TGI
[3] = biological target: T1, Receptor tyrosine-protein kinase erbB-2 (Homo sapiens, UniProt P04626); test: Inhibition of full-length HER2 phosphorylation transfected in human MCF-7 cl.24 cells after 4 hrs by laser scanning fluorescence microplate cytometry; assay type: cell-based
[4] = biological target: T1, Receptor tyrosine-protein kinase erbB-2; test: Inhibition of human HER2 kinase domain expressed in baculovirus/Sf21 system by ELISA
Cytochrome P450 1A2 = biological target: T2, Cytochrome P450 1A2 (Homo sapiens, UniProt P05177); test: Inhibition of CYP1A2 (unknown origin); assay type: ADME
T2 sequence (P05177 whole entry): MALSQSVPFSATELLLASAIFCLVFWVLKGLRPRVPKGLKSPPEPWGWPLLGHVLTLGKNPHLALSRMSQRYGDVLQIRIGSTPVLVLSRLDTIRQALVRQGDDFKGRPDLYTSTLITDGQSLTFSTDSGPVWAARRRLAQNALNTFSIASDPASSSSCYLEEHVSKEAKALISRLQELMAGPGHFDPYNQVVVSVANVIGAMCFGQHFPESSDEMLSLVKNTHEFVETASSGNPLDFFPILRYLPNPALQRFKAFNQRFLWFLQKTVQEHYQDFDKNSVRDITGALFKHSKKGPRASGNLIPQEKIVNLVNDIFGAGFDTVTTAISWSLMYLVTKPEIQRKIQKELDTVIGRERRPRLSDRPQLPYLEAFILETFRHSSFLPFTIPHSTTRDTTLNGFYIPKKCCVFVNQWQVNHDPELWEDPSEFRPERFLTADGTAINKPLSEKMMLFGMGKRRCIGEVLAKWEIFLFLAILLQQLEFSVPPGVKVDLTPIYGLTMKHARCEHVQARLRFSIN

[5] = Fraction unbound in human plasma; assay type: ADME, cell-free
[6] = Bioavailability in AP-Wistar rat at 5 mg/kg, po and 2 mg/kg, iv; assay type: ADME, organism-based; settings: in vivo
[7] = Volume of distribution at steady state in AP-Wistar rat at 5 mg/kg, po and 2 mg/kg, iv; assay type: ADME, organism-based; settings: in vivo, read-out: Vdss
[8] = Clearance in AP-Wistar rat at 5 mg/kg, po and 2 mg/kg, iv; assay type: ADME, organism-based; settings: in vivo
Cytochrome P450 2C19 = Cytochrome P450 2C19 (Homo sapiens, UniProt P33261); test: Inhibition of CYP2C19 (unknown origin); assay type: ADME
[9] = Fraction unbound in rat plasma; assay type: ADME, cell-free
Cytochrome P450 2C9 = Cytochrome P450 2C9 (Homo sapiens, UniProt P11712); test: Inhibition of CYP2C9 (unknown origin); assay type: ADME
[10] = Apparent permeability from apical to basolateral side of human Caco2 cells at 10 uM; assay type: ADME, cell-based; settings: Caco-2
[11] = Bioavailability in dog at 2 mg/kg, po and 1 mg/kg, iv; assay type: ADME, organism-based, Canis lupus familiaris; settings: in vivo
[12] = Intrinsic clearance in human hepatocytes assessed per million cells; assay type: ADME, cell-based, Hepatocyte; settings: read-out: CLH
[13] = Clearance in dog at 2 mg/kg, po and 1 mg/kg, iv; assay type: ADME, organism-based, Canis lupus familiaris; settings: in vivo
Cytochrome P450 2D6 = Cytochrome P450 2D6 (Homo sapiens, UniProt P10635); test: Inhibition of CYP2D6 (unknown origin); assay type: ADME
[14] = Aqueous solubility of the compound in phosphate buffer at pH 6.8; assay type: physicochemical
[15] = Volume of distribution at steady state in dog at 2 mg/kg, po and 1 mg/kg, iv; assay type: ADME, organism-based, Canis lupus familiaris; settings: in vivo, read-out: Vdss

T1 sequence (P04626 whole entry, the tested form may be a part): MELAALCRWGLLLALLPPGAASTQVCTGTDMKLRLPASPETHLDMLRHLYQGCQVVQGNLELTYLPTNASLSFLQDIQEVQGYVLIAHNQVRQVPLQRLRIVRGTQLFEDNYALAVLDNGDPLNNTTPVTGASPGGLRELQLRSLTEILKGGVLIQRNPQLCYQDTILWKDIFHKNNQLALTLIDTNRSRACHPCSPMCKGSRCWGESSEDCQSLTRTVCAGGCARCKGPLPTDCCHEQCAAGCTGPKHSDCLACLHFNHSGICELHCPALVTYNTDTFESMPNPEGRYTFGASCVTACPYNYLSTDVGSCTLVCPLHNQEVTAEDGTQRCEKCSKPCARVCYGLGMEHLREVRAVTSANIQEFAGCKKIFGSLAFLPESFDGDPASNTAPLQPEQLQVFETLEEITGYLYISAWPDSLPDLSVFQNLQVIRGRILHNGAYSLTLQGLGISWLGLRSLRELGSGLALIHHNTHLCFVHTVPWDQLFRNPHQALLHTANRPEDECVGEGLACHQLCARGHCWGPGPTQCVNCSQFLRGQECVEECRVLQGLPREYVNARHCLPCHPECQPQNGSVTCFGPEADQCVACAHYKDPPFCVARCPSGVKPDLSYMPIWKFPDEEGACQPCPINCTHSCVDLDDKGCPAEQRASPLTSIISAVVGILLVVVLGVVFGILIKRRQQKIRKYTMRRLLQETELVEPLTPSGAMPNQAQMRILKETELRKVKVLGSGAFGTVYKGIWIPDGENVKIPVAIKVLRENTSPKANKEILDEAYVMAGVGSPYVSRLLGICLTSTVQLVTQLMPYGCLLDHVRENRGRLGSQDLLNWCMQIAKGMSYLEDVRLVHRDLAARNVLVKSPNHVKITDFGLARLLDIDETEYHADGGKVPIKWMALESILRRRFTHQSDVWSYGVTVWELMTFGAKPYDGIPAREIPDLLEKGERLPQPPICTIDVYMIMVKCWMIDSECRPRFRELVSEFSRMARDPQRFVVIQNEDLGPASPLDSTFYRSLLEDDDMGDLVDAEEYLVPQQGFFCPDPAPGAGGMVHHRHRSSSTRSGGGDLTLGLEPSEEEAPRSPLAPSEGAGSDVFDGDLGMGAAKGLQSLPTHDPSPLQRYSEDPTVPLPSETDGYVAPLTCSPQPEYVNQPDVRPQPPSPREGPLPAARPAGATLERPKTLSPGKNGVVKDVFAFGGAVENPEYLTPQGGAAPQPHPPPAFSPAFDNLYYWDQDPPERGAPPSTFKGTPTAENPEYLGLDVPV
Cytochrome P450 2C19, sequence (P33261 whole entry): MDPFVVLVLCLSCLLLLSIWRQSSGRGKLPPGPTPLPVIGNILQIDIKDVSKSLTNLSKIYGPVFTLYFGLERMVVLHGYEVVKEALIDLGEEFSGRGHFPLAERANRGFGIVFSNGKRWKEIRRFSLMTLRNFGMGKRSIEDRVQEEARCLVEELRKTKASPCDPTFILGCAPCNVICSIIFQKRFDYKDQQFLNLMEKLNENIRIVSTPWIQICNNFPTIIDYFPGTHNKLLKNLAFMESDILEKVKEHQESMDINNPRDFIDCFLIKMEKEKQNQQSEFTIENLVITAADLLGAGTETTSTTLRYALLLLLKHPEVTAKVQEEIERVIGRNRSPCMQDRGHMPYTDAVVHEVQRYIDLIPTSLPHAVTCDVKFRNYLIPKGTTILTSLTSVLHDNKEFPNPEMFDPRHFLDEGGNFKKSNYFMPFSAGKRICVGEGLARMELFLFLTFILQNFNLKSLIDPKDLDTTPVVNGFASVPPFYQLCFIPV
Cytochrome P450 2C9, sequence (P11712 whole entry): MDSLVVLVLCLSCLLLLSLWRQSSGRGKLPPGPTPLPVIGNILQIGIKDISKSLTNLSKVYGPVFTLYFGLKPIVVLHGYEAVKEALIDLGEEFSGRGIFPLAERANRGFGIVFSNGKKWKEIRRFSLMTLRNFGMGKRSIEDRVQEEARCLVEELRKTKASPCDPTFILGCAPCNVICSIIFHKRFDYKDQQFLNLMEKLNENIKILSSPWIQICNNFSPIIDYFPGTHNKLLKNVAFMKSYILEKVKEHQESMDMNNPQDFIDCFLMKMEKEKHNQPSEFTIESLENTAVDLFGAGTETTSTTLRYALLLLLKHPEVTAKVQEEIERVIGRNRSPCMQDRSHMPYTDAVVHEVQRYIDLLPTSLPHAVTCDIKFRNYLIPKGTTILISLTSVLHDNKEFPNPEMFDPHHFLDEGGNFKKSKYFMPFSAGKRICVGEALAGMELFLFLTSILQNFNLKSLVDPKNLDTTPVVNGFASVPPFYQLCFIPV
Cytochrome P450 2D6, sequence (P10635 whole entry): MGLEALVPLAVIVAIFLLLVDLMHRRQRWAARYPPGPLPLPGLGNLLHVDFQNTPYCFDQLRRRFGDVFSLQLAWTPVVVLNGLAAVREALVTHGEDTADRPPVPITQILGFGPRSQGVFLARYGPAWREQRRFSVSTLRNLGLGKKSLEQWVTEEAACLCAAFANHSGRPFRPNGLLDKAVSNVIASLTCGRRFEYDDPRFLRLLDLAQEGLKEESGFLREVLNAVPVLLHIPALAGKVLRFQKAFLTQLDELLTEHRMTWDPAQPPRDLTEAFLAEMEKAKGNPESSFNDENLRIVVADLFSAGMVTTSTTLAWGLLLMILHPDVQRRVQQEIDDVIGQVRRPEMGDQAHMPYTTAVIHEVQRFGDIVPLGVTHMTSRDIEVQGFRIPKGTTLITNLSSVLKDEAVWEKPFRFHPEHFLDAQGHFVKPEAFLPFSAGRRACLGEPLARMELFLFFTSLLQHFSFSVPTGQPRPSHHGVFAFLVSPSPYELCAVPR

COc1cc2ncnc(Nc3cccc(Cl)c3F)c2cc1OC1CCN(CC(N)=O)CC1
AUC [1]: 19 µM·h | IC50 (KB): 4 nM | logD [2]: 3.1 | inhibition in vivo at 100 mg/kg (LoVo): 36%

COCCNC(=O)CN1CCC(Oc2cc3c(Nc4cccc(Cl)c4F)ncnc3cc2OC)CC1
IC50 [3]: 250 nM | IC50 [4]: 91 nM

CNC(=O)CN1CCC(Oc2cc3c(Nc4cccc(Cl)c4F)ncnc3cc2OC)CC1 [SAPITINIB]
IC50 [3]: 60 nM | AUC [1]: 66 µM·h | IC50 (Cytochrome P450 1A2): > 10000 nM | fraction unbound [5]: 0.067 | bioavailability [6]: 38% | Vd [7]: 0.8 L/kg | clearance [8]: 13 mL/min/kg | IC50 [4]: 14 nM | IC50 (Cytochrome P450 2C19): > 10000 nM | fraction unbound [9]: 0.072 | IC50 (Cytochrome P450 2C9): > 10000 nM | Papp A→B at 10 µM [10]: 15.9 ×10⁻⁶ cm/s | logD [2]: 3.2 | inhibition in vivo at 100 mg/kg (LoVo): 76% | bioavailability [11]: 89% | hepatocyte CLint [12]: < 4.5 µL/min/1e6 cells | clearance [13]: 1.1 mL/min/kg | IC50 (Cytochrome P450 2D6): > 10000 nM | solubility [14]: 17 µM (≈ 8.06 µg/mL) | Vd [15]: 0.2 L/kg

CNC(=O)CN1CCC(Oc2cc3c(Nc4cc(Cl)ccc4F)ncnc3cc2OC)CC1
IC50 [3]: 860 nM

CNC(=O)CN1CCC(Oc2cc3c(Nc4ccc(F)c(Cl)c4F)ncnc3cc2OC)CC1
IC50 [3]: 89 nM

COc1cc2ncnc(Nc3cccc(Cl)c3F)c2cc1OC1CCN(CC(=O)N(C)C)CC1
IC50 [3]: 670 nM | IC50 [4]: 220 nM

COc1cc2ncnc(Nc3cccc(Cl)c3F)c2cc1OC1CCN(CC(=O)NC(C)C)CC1
IC50 [3]: 410 nM | IC50 [4]: 110 nM

CNC(=O)CN1CC(Oc2cc3c(Nc4cccc(Cl)c4F)ncnc3cc2OC)C1
IC50 [3]: 1100 nM

CNC(=O)CN1CCCC(Oc2cc3c(Nc4cccc(Cl)c4F)ncnc3cc2OC)C1 (racemic)
IC50 [3]: 230 nM

CNC(=O)CN1CCC(Oc2cc3c(Nc4cccc(Cl)c4F)ncnc3cc2OC)C1 (racemic)
IC50 [3]: 250 nM

CNC(=O)CN1CCC(Oc2cc3c(Nc4cccc(Cl)c4)ncnc3cc2OC)CC1
IC50 [3]: 360 nM

CNC(=O)CCN1CCC(Oc2cc3c(Nc4cccc(Cl)c4F)ncnc3cc2OC)CC1
IC50 [3]: 550 nM

CNC(=O)CN1CCC(Oc2cc3c(Nc4ccc(F)c(Cl)c4)ncnc3cc2OC)CC1
IC50 [3]: 264 nM | AUC [1]: 19 µM·h | fraction unbound [5]: 0.027 | fraction unbound [9]: 0.029 | logD [2]: 4 | inhibition in vivo at 100 mg/kg (LoVo): 28%

CNC(=O)CN(C)CCOc1cc2c(Nc3cccc(Cl)c3F)ncnc2cc1OC
IC50 [3]: 1500 nM

CCNC(=O)CN1CCC(Oc2cc3c(Nc4cccc(Cl)c4F)ncnc3cc2OC)CC1
IC50 [3]: 120 nM | IC50 [4]: 33 nM
